The record followed here is ChEMBL document CHEMBL1201862, “PubChem BioAssay data set” (2004).

Among the test systems are HCT-15; OVCAR-3; Hs-578T; CCRF-CEM; KM12; DU-145; HCC 2998; SF-539; RXF 393; EKVX; PC-3; MDA-MB-435; OVCAR-4; SNB-75; IGROV-1; BT-549; A549; RPMI-8226; OVCAR-8; SK-MEL-2.
What all share (assay): inhibition of tumour cell growth, NCI panel, 48 h

Each structure is given as a SMILES string.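 Following 48 hours of exposure in 96-well plates, responses at five concentrations were used to interpolate endpoints linearly. Abbreviation: GI50, concentration required for 50% inhibition of growth.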 The source made the active and inactive calls. Cut-off read from the data, not from the text of the source: active = GI50 up to about 1.1 µM and inactive = higher.

Take `Clc1cccc(Cl)c1C1SCC2=Nc3ccccc3CN21` (centres undefined): the GI50 is 32 µM with HCT-15; 15 µM (inactive) in the assay on OVCAR-3; 24.8 µM (inactive) with Hs-578T; 32.4 µM (inactive) in the assay on CCRF-CEM; 20.8 µM (inactive) in the assay on KM12; 25 µM (inactive) in the assay with DU-145. Besides, the GI50 with HCC 2998 was 29.6 µM (inactive); in the assay on SF-539, 16.2 µM (inactive); in the assay with RXF 393 it was 27.8 µM (inactive); in the assay on EKVX it was 23.7 µM (inactive); with PC-3, 18.7 µM (inactive); in the assay on MDA-MB-435, 27.2 µM (inactive). Besides, the GI50 with OVCAR-4 was 80.4 µM (inactive); in the assay with SNB-75, 38.3 µM (inactive); in the assay on IGROV-1, 22.9 µM (inactive); with BT-549 it was 66.4 µM (inactive); with A549, 20.5 µM (inactive); in the assay with RPMI-8226 it was 17.1 µM (inactive).

Consider `O=c1oc2ccccc2cc1-c1nc2ccccc2c(=O)[nH]1`, for which the GI50 in the assay with HCT-15 is above 100 µM; in the assay with OVCAR-8 it was > 100 µM (inactive); with Hs-578T it was > 100 µM (inactive); in the assay on CCRF-CEM, > 100 µM (inactive); in the assay with KM12, > 100 µM (inactive); in the assay on DU-145, > 100 µM (inactive). In addition, the GI50 with HCC 2998, with SF-539, in the assay on RXF 393, in the assay on EKVX, with PC-3 and in the assay on MDA-MB-435 was > 100 µM (inactive) each time. Further, the GI50 with OVCAR-4 was > 100 µM (inactive); in the assay on SK-MEL-2, > 100 µM (inactive); in the assay with SNB-75 it was 69.3 µM (inactive); in the assay on IGROV-1, > 100 µM (inactive); in the assay with BT-549, 77.8 µM (inactive); in the assay on A549, > 100 µM (inactive). Also, in the assay with RPMI-8226, the GI50 was > 100 µM (inactive).

Turning to `Clc1ccc(Cl)c(SCCCN2CCNCC2)c1`, the GI50 with HCT-15 was 18.7 µM; in the assay with OVCAR-8, 20.3 µM (inactive); with OVCAR-3 it was 19.2 µM (inactive); in the assay with Hs-578T it was 16.1 µM (inactive); with CCRF-CEM it was 19.9 µM (inactive); in the assay on KM12 it was 25.5 µM (inactive). Moreover, the GI50 in the assay with DU-145 is 15.8 µM (inactive); in the assay with HCC 2998 it was 3.61 µM (inactive); with SF-539, 27.5 µM (inactive); with RXF 393 it was 14.4 µM (inactive); with EKVX, 16.9 µM (inactive); in the assay on PC-3 it was 14.6 µM (inactive). Moreover, the GI50 in the assay with MDA-MB-435 is 14 µM (inactive); in the assay with OVCAR-4, 20.6 µM (inactive); in the assay on SNB-75, 13.4 µM (inactive); in the assay on IGROV-1 it was 18.2 µM (inactive); in the assay with BT-549, 17.1 µM (inactive); in the assay with A549, 20.6 µM (inactive). Further, the GI50 in the assay with RPMI-8226 is 19.8 µM (inactive).

For the molecule `N=c1oc2cc(O)ccc2cc1C(=O)Nc1cccc2ccccc12`, the GI50 with HCT-15 was 2.67 µM; in the assay with OVCAR-8 it was 4.78 µM (inactive); in the assay on OVCAR-3, 7.13 µM (inactive); in the assay on Hs-578T, 2.94 µM (inactive); in the assay with CCRF-CEM it was 2.35 µM (inactive); in the assay with KM12, 3.75 µM (inactive). Further, the GI50 in the assay with DU-145 was 6.53 µM (inactive); with HCC 2998, 3.71 µM (inactive); in the assay with RXF 393, 4.91 µM (inactive); with EKVX, 4.32 µM (inactive); in the assay on PC-3 it was 3.05 µM (inactive); in the assay with MDA-MB-435 it was 1.97 µM (inactive). Besides, the GI50 with OVCAR-4 was 7.01 µM (inactive); with SNB-75, 3.54 µM (inactive); with IGROV-1, 3.27 µM (inactive); with BT-549 it was 2.43 µM (inactive); in the assay on A549 it was 5.37 µM (inactive); in the assay with RPMI-8226, 4.45 µM (inactive).

Take `Cc1ccc(S(=O)(=O)N2C[C@@H]3CC[C@]4(CO[Si](C)(C)C(C)(C)C)N[C@@H](c5ccccc5)[C@H]2[C@H]34)cc1`: the GI50 in the assay with HCT-15 was 24.7 µM; with OVCAR-8, 39.7 µM (inactive); in the assay with OVCAR-3 it was 32 µM (inactive); in the assay on Hs-578T, 27.4 µM (inactive); in the assay on CCRF-CEM, 43.2 µM (inactive); with KM12, 26.5 µM (inactive). The GI50 is 45 µM (inactive) with DU-145; 18.4 µM (inactive) in the assay with HCC 2998; 32.4 µM (inactive) in the assay on SF-539; 14.5 µM (inactive) with RXF 393; 34.2 µM (inactive) in the assay on EKVX; 18.2 µM (inactive) in the assay on PC-3. Moreover, the GI50 was 39.2 µM (inactive) in the assay with MDA-MB-435; 26.5 µM (inactive) with OVCAR-4; 48.2 µM (inactive) in the assay with SK-MEL-2; 31.3 µM (inactive) in the assay with IGROV-1; 20.4 µM (inactive) in the assay with BT-549; 22.4 µM (inactive) with A549. The GI50 with RPMI-8226 is 7.87 µM (inactive).

For the molecule `COC1=C(OC)C(=O)C(Cc2c(Cl)nc3sccn23)=C(C)C1=O`, the GI50 in the assay with HCT-15 was 12.6 µM; with OVCAR-8 it was 13.5 µM (inactive); in the assay with OVCAR-3 it was 12.7 µM (inactive); in the assay on Hs-578T, 11.4 µM (inactive); with CCRF-CEM it was 2.02 µM (inactive); in the assay on KM12 it was 10.4 µM (inactive). In addition, the GI50 was 13.5 µM (inactive) in the assay on DU-145; 15.7 µM (inactive) in the assay on HCC 2998; 12.5 µM (inactive) with SF-539; 16.1 µM (inactive) in the assay with RXF 393; 7.11 µM (inactive) in the assay on EKVX; 14.2 µM (inactive) in the assay with PC-3. In addition, the GI50 in the assay on MDA-MB-435 was 8.91 µM (inactive); with OVCAR-4, 2.96 µM (inactive); with SK-MEL-2, 14.1 µM (inactive); with IGROV-1, 15.7 µM (inactive); in the assay with BT-549 it was 14.4 µM (inactive); in the assay on A549 it was 11.6 µM (inactive). In addition, the GI50 with RPMI-8226 was 2.34 µM (inactive).

With `O=C1CCCCN1C(=O)c1ccc([N+](=O)[O-])cc1`, the GI50 in the assay with HCT-15 was above 100 µM; with OVCAR-8, > 100 µM (inactive); in the assay on OVCAR-3 it was > 100 µM (inactive); in the assay with Hs-578T it was > 100 µM (inactive); in the assay with CCRF-CEM, > 100 µM (inactive); with KM12, > 100 µM (inactive). For the same molecule, the GI50 in the assay with DU-145 was > 100 µM (inactive); with HCC 2998 it was > 100 µM (inactive); with SF-539, > 100 µM (inactive); in the assay on RXF 393 it was > 100 µM (inactive); in the assay on EKVX, > 100 µM (inactive); in the assay with PC-3, 44.3 µM (inactive). For the same molecule, the GI50 in the assay with MDA-MB-435, in the assay with OVCAR-4, with SNB-75, in the assay on IGROV-1, with BT-549 and with A549 was > 100 µM (inactive) throughout. Moreover, the GI50 in the assay with RPMI-8226 was > 100 µM (inactive).

For the molecule `COC(=O)[C@]1(C)CCC[C@@]2(C)C1CC[C@]13C=C(C(C)C)[C@H](CC21)CC3(Cl)C#N` (some centres undefined), the GI50 in the assay on HCT-15 was 44.7 µM; in the assay on OVCAR-8 it was 45.9 µM (inactive); with OVCAR-3, 35 µM (inactive); with Hs-578T, > 100 µM (inactive); in the assay with CCRF-CEM it was 20.7 µM (inactive); in the assay with KM12, 38.1 µM (inactive). The GI50 is 43.5 µM (inactive) in the assay with DU-145; 29.8 µM (inactive) with HCC 2998; 78 µM (inactive) in the assay with SF-539; 24.8 µM (inactive) in the assay with RXF 393; 31.5 µM (inactive) in the assay on EKVX; 18.9 µM (inactive) in the assay with PC-3. For the same molecule, the GI50 was 42.6 µM (inactive) in the assay with MDA-MB-435; 54.6 µM (inactive) in the assay on OVCAR-4; 4.24 µM (inactive) with SNB-75; > 100 µM (inactive) in the assay on IGROV-1; 35.6 µM (inactive) in the assay with BT-549; 57.5 µM (inactive) with A549.

With `CNc1nc(N)c(N=O)c(Nc2ccc(Br)cc2)n1`, the GI50 in the assay on HCT-15 is above 100 µM; with OVCAR-8, > 100 µM (inactive); in the assay on OVCAR-3, > 100 µM (inactive); with Hs-578T, 5.35 µM (inactive); with CCRF-CEM, 81.8 µM (inactive); with KM12, > 100 µM (inactive). Also, the GI50 in the assay on DU-145 was > 100 µM (inactive); with HCC 2998, > 100 µM (inactive); in the assay with SF-539, > 100 µM (inactive); with RXF 393, > 100 µM (inactive); in the assay with EKVX, 13.7 µM (inactive); in the assay on PC-3 it was > 100 µM (inactive). Moreover, the GI50 is > 100 µM (inactive) in the assay on MDA-MB-435; > 100 µM (inactive) in the assay with SK-MEL-2; 68.5 µM (inactive) in the assay with SNB-75; > 100 µM (inactive) in the assay with IGROV-1; > 100 µM (inactive) in the assay on BT-549; > 100 µM (inactive) in the assay with A549. The GI50 in the assay on RPMI-8226 is > 100 µM (inactive).

Turning to `C[C@@H]1OC(=O)C[C@H]2CC(=O)N(CCC3CN(C(=O)OCc4ccccc4)c4ccccc43)C[C@@H]21` (some centres undefined), the GI50 in the assay with HCT-15 is above 100 µM; with OVCAR-8 it was > 100 µM (inactive); in the assay on OVCAR-3 it was > 100 µM (inactive); in the assay with Hs-578T, > 100 µM (inactive); in the assay on KM12 it was > 100 µM (inactive); in the assay on DU-145, > 100 µM (inactive). Moreover, the GI50 in the assay on HCC 2998, in the assay with RXF 393, in the assay on EKVX, in the assay on PC-3, in the assay on MDA-MB-435 and with OVCAR-4 was > 100 µM (inactive) each time. In addition, the GI50 in the assay on SK-MEL-2, with SNB-75, in the assay on IGROV-1, in the assay on BT-549, in the assay on A549 and in the assay with RPMI-8226 was > 100 µM (inactive) throughout.

With `COc1ncc(/C=C2\OC(=O)c3ccccc32)c(OC)n1`, the GI50 in the assay with HCT-15 is 65.2 µM; in the assay on OVCAR-8, 8.13 µM (inactive); with OVCAR-3, 24.9 µM (inactive); with Hs-578T it was 10.1 µM (inactive); in the assay on CCRF-CEM, 39.1 µM (inactive); with KM12, > 100 µM (inactive). Further, the GI50 in the assay with DU-145 was 88.9 µM (inactive); in the assay with HCC 2998 it was 76 µM (inactive); with SF-539 it was 12.7 µM (inactive); with RXF 393, 7 µM (inactive); in the assay with EKVX, 23.5 µM (inactive); with PC-3, 39 µM (inactive). Besides, the GI50 is 77.8 µM (inactive) in the assay with MDA-MB-435; 6.44 µM (inactive) in the assay with SNB-75; 4.48 µM (inactive) in the assay on IGROV-1; 0.402 µM (active) in the assay with BT-549; 17.5 µM (inactive) in the assay on A549; 5.94 µM (inactive) with RPMI-8226.
